The test addresses T1, TGFβRI (Homo sapiens, UniProt P36897).
T1 construct: gene TGFBR1
T1 sequence (P36897 34-503): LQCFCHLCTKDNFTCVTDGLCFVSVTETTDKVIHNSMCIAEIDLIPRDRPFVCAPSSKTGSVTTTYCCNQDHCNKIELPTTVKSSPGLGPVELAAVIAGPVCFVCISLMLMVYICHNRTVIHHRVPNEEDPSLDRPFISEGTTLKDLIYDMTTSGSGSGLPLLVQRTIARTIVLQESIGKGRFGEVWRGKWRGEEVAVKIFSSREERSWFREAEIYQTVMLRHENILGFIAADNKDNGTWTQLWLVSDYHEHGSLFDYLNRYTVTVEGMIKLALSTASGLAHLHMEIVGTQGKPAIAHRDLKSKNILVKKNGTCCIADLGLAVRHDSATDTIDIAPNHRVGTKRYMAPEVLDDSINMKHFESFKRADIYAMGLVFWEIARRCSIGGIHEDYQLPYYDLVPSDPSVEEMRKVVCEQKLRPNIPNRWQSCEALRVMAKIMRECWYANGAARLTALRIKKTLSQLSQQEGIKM
Kind of test: ADP-Glo kinase assay. The format is biochemical. A general note: ADP-Glo turns the ADP formed in a reaction into a luminescent signal.

The record followed here is paper PMC9653795, “Structure-Guide Design and Optimization of Potential Druglikeness Inhibitors for TGFβRI with the Pyrrolopyrimidine Scaffold” (Pharmaceuticals, 2022).

The IC50 is the concentration at which inhibition is half-maximal. A higher IC50 goes with lower potency. In the case of `CC(C)(O)CNc1nc(Nc2ccncc2F)nc(-c2cccc(C(F)(F)F)n2)n1` [W8, 1-((4-((3-Fluoropyridin-4-yl)Amino)-6-(6-(Trifluoromethyl)Pyridin-2-yl)-1,3,5-Triazin-2-yl)Amino)-2-Methylpropan-2-ol], 10.8 µM corresponded to half-maximal inhibition (IC50).
